Results on 20 compounds are retold here after publication PMC6128881, “Novel insight into the reaction of nitro, nitroso and hydroxylamino benzothiazinones and of benzoxacinones with Mycobacterium tuberculosis DprE1” (Scientific Reports, 2018).

In one series the test system is M. vaccae 10670. Kind of series: Minimal inhibitory concentration, M. vaccae. It is filed as cell-based. Conditions: n = 1.
Series [1] is classed as physicochemical. Conditions: pH 7.4. Here is the method: Solubility of compounds was measured by Chemi-Luminescent Nitrogen Detection (CLND)[32]. […] of 10 mM DMSO stock solutions of compounds were diluted to […] with phosphate buffered saline (PBS), pH 7.4, equilibrated for 1 hour at room temperature and filtered through Millipore Multiscreen HTS-PCF filter plates (MSSL BPC) prior to analysis by CLND.

The next series deals with M. tuberculosis H37Rv. Kind of series: Minimal inhibitory concentration, M. tuberculosis H37Rv. To be noted: for MIC Mtb-H37Rv / MIC / Inhibition of Mtb-H37Rv (MIC): n = 3; for MIC: read-out: MIC Mtb-H37Rv; for fold higher Mtb MIC of BOZ relative to BTZ counterpart: 5 vs 9, 10 vs PBTZ169. It is filed as cell-based, Mycobacterium tuberculosis. Here is the method: MIC values for M. tuberculosis H37Rv and M. vaccae […] were determined as described previously[33],[34].

Series [2] has as its target T1, Mtb-DprE1 (Mycobacterium tuberculosis, UniProt P9WJF1).
T1 construct: made in house; host or cells: E. coli
As to the kind of experiment: biochemical. It is filed as biochemical. Conditions: for kinact/Ki: second order rate constant of inactivation, 150 nM Mtb-DprE1, 1 mM FPR, up to 100 min; for fold lower kinact/Ki of BOZ than the BTZ counterpart: 4 vs 7, 3 vs 6, 5 vs 9; for dependence of kobs on inhibitor concentration: inhibitor 10 nM to 100 µM; for fold increase in kinact/Ki as compared to 7: relative to 7.

In series [3] the target is T1, Mtb-DprE1. As to the kind of experiment: Intact protein mass spectrometry of Mtb-DprE1 after incubation with inhibitor. To be noted: incubated in the presence of FPR and FAD, LC-MS. It counts as binding.

Values after ≈ are worked out from the molar mass of the structure shown. Like-named read-outs stand apart in the source and are kept apart here.

T1 sequence (P9WJF1 whole entry): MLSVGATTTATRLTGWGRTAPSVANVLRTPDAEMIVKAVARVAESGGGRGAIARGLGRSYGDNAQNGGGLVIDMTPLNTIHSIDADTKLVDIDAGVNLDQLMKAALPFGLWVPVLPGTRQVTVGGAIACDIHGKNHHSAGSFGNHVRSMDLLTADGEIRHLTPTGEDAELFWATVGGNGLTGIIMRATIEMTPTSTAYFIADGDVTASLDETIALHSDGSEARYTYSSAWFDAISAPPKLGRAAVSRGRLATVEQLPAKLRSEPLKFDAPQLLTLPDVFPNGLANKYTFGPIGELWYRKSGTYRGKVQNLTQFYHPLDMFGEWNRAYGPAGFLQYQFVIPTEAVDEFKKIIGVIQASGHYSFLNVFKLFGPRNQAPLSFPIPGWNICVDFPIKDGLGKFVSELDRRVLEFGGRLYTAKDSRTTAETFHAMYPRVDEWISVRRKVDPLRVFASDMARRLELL

In the case of `O=c1nc(N2CCCCC2)sc2c([N+](=O)[O-])cc(C(F)(F)F)cc12` [C00002], in the series on M. vaccae 10670, the MIC is on record as 1.1 µM (≈ 0.395 µg/mL) and the “MIC M. vaccae 10670” value is 0.4 µg/mL (≈ 1.11 µM). The “CLND Solubility” value in series [1] came out at 370 µM. In the series with M. tuberculosis H37Rv, the “MIC Mtb-H37Rv” value was 1.2 µg/mL (≈ 3.34 µM) and the MIC turned out to be 3.3 µM (≈ 1.19 µg/mL). In addition, at Mtb-DprE1 [2], the kinact/Ki was found to be 39 ± 2 M⁻¹ s⁻¹.

As for `O=c1nc(N2CCOCC2)sc2c([N+](=O)[O-])cc(C(F)(F)F)cc12` [C00003], in the series on M. vaccae 10670, the MIC turned out to be 8.6 µM (≈ 3.11 µg/mL) and the “MIC M. vaccae 10670” value was 3.1 µg/mL (≈ 8.58 µM). Also, the “CLND Solubility” value in series [1] was at least 450 µM. In addition, in the series on M. tuberculosis H37Rv, the “MIC Mtb-H37Rv” value was found to be 2.1 µg/mL (≈ 5.81 µM) and the minimal inhibitory concentration (MIC) is reported as 5.9 µM (≈ 2.13 µg/mL). Besides, the kinact/Ki at Mtb-DprE1 [2] amounted to 17 ± 2 M⁻¹ s⁻¹.

For the compound `O=c1nc(N2CCCCC2)oc2c([N+](=O)[O-])cc(C(F)(F)F)cc12` [C00006], in the series on M. vaccae 10670, the MIC stood at 4.6 µM (≈ 1.58 µg/mL) and the “MIC M. vaccae 10670” value is 1.6 µg/mL (≈ 4.66 µM). Besides, the “CLND Solubility” value in series [1] is at least 510 µM. Moreover, in the series with M. tuberculosis H37Rv, the “MIC Mtb-H37Rv” value was determined as 5.3 µg/mL (≈ 15.4 µM) and the MIC stood at 16 µM (≈ 5.49 µg/mL). The kinact/Ki on Mtb-DprE1 [2] turned out to be 5.6 ± 0.1 M⁻¹ s⁻¹.

`O=c1nc(N2CCOCC2)oc2c([N+](=O)[O-])cc(C(F)(F)F)cc12` [C00007]: in the series on M. vaccae 10670, the MIC is 18 µM (≈ 6.21 µg/mL) and the “MIC M. vaccae 10670” value worked out at 6.2 µg/mL (≈ 18 µM). Besides, the “CLND Solubility” value in series [1] was at least 510 µM. Further, in the series with M. tuberculosis H37Rv, the “MIC Mtb-H37Rv” value came out at 1.4 µg/mL (≈ 4.06 µM) and the MIC came out at 3.9 µM (≈ 1.35 µg/mL). At Mtb-DprE1 [2], the kinact/Ki worked out at 4.2 ± 0.1 M⁻¹ s⁻¹.

Regarding `C[C@H]1COC2(CCN(c3nc(=O)c4cc(C(F)(F)F)cc([N+](=O)[O-])c4s3)CC2)O1` [C00009], in the series with M. vaccae 10670, the MIC came out at 0.001 µM (≈ 0.000431 µg/mL) and the “MIC M. vaccae 10670” value was 0.0004 µg/mL (≈ 0.000927 µM). Also, the “CLND Solubility” value in series [1] amounted to 32 µM. In addition, in the series with M. tuberculosis H37Rv, the “MIC Mtb-H37Rv” value was found to be 0.001 µg/mL (≈ 0.00232 µM) and the MIC stood at 0.0023 µM (≈ 0.000992 µg/mL). The kinact/Ki at Mtb-DprE1 [2] amounted to 720 ± 20 M⁻¹ s⁻¹.

Take `O=c1nc(N2CCN(CC3CCCCC3)CC2)sc2c([N+](=O)[O-])cc(C(F)(F)F)cc12` [C00010]: the “CLND Solubility” value in series [1] was determined as 32 µM. Moreover, in the series on M. tuberculosis H37Rv, the “MIC Mtb-H37Rv” value came out at 0.00019 µg/mL (≈ 0.000416 µM) and the MIC was 0.00042 µM (≈ 0.000192 µg/mL).

As for `O=c1nc(N2CCN(CC3CCCCC3)CC2)oc2c([N+](=O)[O-])cc(C(F)(F)F)cc12` [C00011], in the series with M. vaccae 10670, the MIC is under 0.11 µM and the “MIC M. vaccae 10670” value is under 0.05 µg/mL. For the same compound, in series [1], the “CLND Solubility” value is 12 µM. Moreover, in the series on M. tuberculosis H37Rv, the “MIC Mtb-H37Rv” value amounted to 0.14 µg/mL (≈ 0.318 µM) and the MIC stood at 0.31 µM (≈ 0.137 µg/mL). For the same compound, the kinact/Ki at Mtb-DprE1 [2] worked out at 300 ± 40 M⁻¹ s⁻¹.

For `O=Nc1cc(C(F)(F)F)cc2c(=O)nc(N3CCCCC3)sc12` [C00012], in the series with M. vaccae 10670, the MIC is 73 µM (≈ 25.1 µg/mL) and the “MIC M. vaccae 10670” value came to 25 µg/mL (≈ 72.8 µM). Also, in series [1], the “CLND Solubility” value amounted to 250 µM. Moreover, the “Inhibition of Mtb-H37Rv (MIC)” value in the series on M. tuberculosis H37Rv (at 80 μM) came out at 82% Inhibition at 80 μM.

In the case of `O=c1nc(N2CCCCC2)sc2c(NO)cc(C(F)(F)F)cc12` [C00013], in the series on M. vaccae 10670, the MIC amounted to 18 µM (≈ 6.22 µg/mL) and the “MIC M. vaccae 10670” value came out at 6.2 µg/mL (≈ 18 µM). Also, the “CLND Solubility” value in series [1] turned out to be 10 µM. Also, the MIC in the series on M. tuberculosis H37Rv is over 80 µM.

Take `C[C@H]1COC2(CCN(c3nc(=O)c4cc(C(F)(F)F)cc(N=O)c4s3)CC2)O1` [C00014]: in the series on M. vaccae 10670, the MIC turned out to be 0.06 µM (≈ 0.0249 µg/mL) and the “MIC M. vaccae 10670” value was determined as 0.03 µg/mL (≈ 0.0722 µM). Further, the “CLND Solubility” value in series [1] worked out at 210 µM. Besides, the “Inhibition of Mtb-H37Rv (MIC)” value in the series on M. tuberculosis H37Rv (at 0.16 μM) came to 67% Inhibition at 0.16 μM. In addition, the kinact/Ki on Mtb-DprE1 [2] was 39 ± 1 M⁻¹ s⁻¹.

As for `O=Nc1cc(C(F)(F)F)cc2c(=O)nc(N3CCCCC3)sc12` [Compound 1, 8-Nitroso-2-(piperidin-1-yl)-6-(trifluoromethyl)-4H-1,3-benzothiazin-4-one], on Mtb-DprE1 [3], the “mass increase of Mtb-DprE1 (covalent adduct)” value worked out at 343 Da. The 50% inhibitory concentration (IC50) on Mtb-DprE1 [2] (IC50, final value of the decrease during the first 100 min of reaction, 100 min of reaction) is 3 µM; against Mtb-DprE1 [2] (IC50, starting value of the decrease during the first 100 min of reaction, early reaction time) it was 5 µM.

In the case of `O=c1nc(N2CCOCC2)oc2c([N+](=O)[O-])cc(C(F)(F)F)cc12` [Compound 3, 2-(morpholin-4-yl)-8-nitro-6-(trifluoromethyl)-4H-1,3-benzoxazin-4-one], on Mtb-DprE1 [2], the “fold lower kinact/Ki of BOZ than the BTZ counterpart” value (shortened to “fold lower kinact/Ki”) is recorded as 4 fold and the “dependence of kobs on inhibitor concentration” value is on record as “linear dependence”.

As for `O=c1nc(N2CCCCC2)oc2c([N+](=O)[O-])cc(C(F)(F)F)cc12` [Compound 4, 8-nitro-2-(piperidin-1-yl)-6-(trifluoromethyl)-4H-1,3-benzoxazin-4-one], at Mtb-DprE1 [2], the “fold lower kinact/Ki” value was 7 fold and the “dependence of kobs on inhibitor concentration” value was “linear dependence”.

As for `CC1CCCC(C)N1c1nc(=O)c2cc(C(F)(F)F)cc([N+](=O)[O-])c2o1` (stereo not drawn) [Compound 5, 2-(2,6-Dimethylpiperidin-1-yl)-8-nitro-6-(trifluoromethyl)-4H-1,3-benzoxazin-4-one], the “fold higher Mtb MIC of BOZ relative to BTZ counterpart” value in the series with M. tuberculosis H37Rv is given as 8 fold. On Mtb-DprE1 [2], the “fold lower kinact/Ki” value turned out to be 31 fold and the “dependence of kobs on inhibitor concentration” value is reported as “linear dependence”.

For the compound `O=c1nc(N2CCOCC2)sc2c([N+](=O)[O-])cc(C(F)(F)F)cc12` [Compound 6, 2-(morpholin-4-yl)-8-nitro-6-(trifluoromethyl)-4H-1,3-benzothiazin-4-one], the “dependence of kobs on inhibitor concentration” value at Mtb-DprE1 [2] is given as “hyperbolic dependence”.

On to `O=c1nc(N2CCCCC2)sc2c([N+](=O)[O-])cc(C(F)(F)F)cc12` [Compound 7, 8-Nitro-2-(piperidin-1-yl)-6-(trifluoromethyl)-4H-1,3-benzothiazin-4-one], for which, in the series with M. vaccae 10670, the “MIC M. vaccae 10670” value is given as “low micromolar”. Further, the “MIC Mtb-H37Rv” value in the series with M. tuberculosis H37Rv is “low micromolar”. Further, on Mtb-DprE1 [2], the “dependence of kobs on inhibitor concentration” value is “linear dependence”.

Consider `CC1COC2(CCN(c3nc(=O)c4cc(C(F)(F)F)cc(N=O)c4s3)CC2)O1` (stereo not drawn) [Compound 8, 2-{2-Methyl-1,4-dioxa-8-azaspiro[4.5]decan-8-yl}-8-nitroso-6-(trifluoromethyl)-4H-1,3 benzothiazin-4-one], for which the “dependence of kobs on inhibitor concentration” value at Mtb-DprE1 [2] is recorded as “linear dependence”.

On to `CC1CCCC(C)N1c1nc(=O)c2cc(C(F)(F)F)cc([N+](=O)[O-])c2s1` (stereo not drawn) [Compound 9, 2-(2,6-Dimethylpiperidin-1-yl)-8-nitro-6-(trifluoromethyl)-4H-1,3-benzothiazin-4-one], for which, on Mtb-DprE1 [2], the “dependence of kobs on inhibitor concentration” value is recorded as “linear dependence” and the “fold increase in kinact/Ki as compared to 7” value was determined as 6 fold.

Consider `O=c1nc(N2CCN(CC3CCCCC3)CC2)oc2c([N+](=O)[O-])cc(C(F)(F)F)cc12` [Compound 10, 2-[4-(cyclohexylmethyl)piperazin-1-yl]-8-nitro-6-(trifluoromethyl)-4H-1,3-benzoxazin-4-one], for which the “fold higher Mtb MIC of BOZ relative to BTZ counterpart” value with M. tuberculosis H37Rv is “approximately 700 fold”. Besides, the MIC in the series with M. tuberculosis H37Rv (Mycobacterium tuberculosis, H37RV) is 0.3 µM (≈ 0.132 µg/mL). The “dependence of kobs on inhibitor concentration” value at Mtb-DprE1 [2] is “hyperbolic dependence”.

In the case of `O=c1nc(N2CCCCC2)sc2c([N+](=O)[O-])c(Cl)c(C(F)(F)F)cc12` [Compound 11, 7-Chloro-8-nitro-2-(piperidin-1-yl)-6-(trifluoromethyl)-4H-1,3-benzothiazin-4-one], at Mtb-DprE1 [3], the “mass increase of Mtb-DprE1 (covalent adduct)” value is on record as 378 Da. Besides, on Mtb-DprE1 [2], the “dependence of kobs on inhibitor concentration” value is reported as “hyperbolic dependence” and the “fold increase in kinact/Ki as compared to 7” value is on record as 8.7 fold.
